Test results: US20130072424A1, “COMPOUNDS AND METHODS FOR PEPTIDE RIBONUCLEIC ACID CONDENSATE PARTICLES FOR RNA THERAPEUTICS” (MARINA BIOTECH, INC., priority 2005, published 2013)
Ends that are not written are not given here.

What was measured:
Format in all cases: cell-based
[1] = test system: mouse tail fibroblast (MTF) cells; test: Polypeptide mediated siRNA delivery screen (Cy5-siRNA cell-uptake and MFI), Example 17; conditions: Cy5-conjugated siRNA
Description: siRNA uptake by cells was assessed by flow cytometry (refer to Example 2 for details). Uptake was expressed as a percentage calculated by dividing the number of cells containing Cy5-conjugated siRNA by the total number of transfected and untransfected cells in culture. Mean Fluorescence Intensity (MFI) was measured by flow cytometry and determined the amount of Cy5-conjugated siRNA found within cells. The MFI value directly correlates with the amount of Cy5-conjugated siRNA within the cell, thus, a higher MFI value indicates a greater number of Cy5-conjugated siRNA within the cells.

hTNF-α mRNA = test: Knockdown of hTNF-α gene expression by siRNA/peptide complexes in LPS-stimulated human monocytes (branch DNA mRNA); conditions: for siRNA Knockdown Activity: 20 nM siRNA
Description: Specifically, the ability of siRNA/peptide complexes to modulate expression of the human tumor necrosis factor-α (hTNF-α) gene was assessed. The significance of targeting the hTNF-α gene is that it is implicated in mediating the occurrence or progression of rheumatoid arthritis (RA) when over-expressed in human and other mammalian subjects.
Human monocytes were used as a model system to determine the effect of siRNA/peptide complexes on hTNF-α gene expression. Qneg represents a random siRNA sequence and functioned as the negative control. […] A19S21, 21/21 and LC20 are siRNAs that target hTNF-α mRNA.
Healthy human blood was purchased from Golden West Biologicals (CA), the peripheral blood mononuclear cells (PBMC) were purified from the blood using Ficoll-Pague plus (Amersham) gradient. Human monocytes were then purified from the PBMCs fraction using magnetic microbeads from Miltenyi Biotech. Isolated human monocytes were resuspended in IMDM supplemented with 4 mM glutamine, 10% FBS, 1× non-essential amino acid and 1× pen-strep, and stored at 4 C until use.
In a 96 well flat bottom plate, human monocytes were seeded at 100 K/well/100 μl in OptiMEM medium (Invitrogen). Exemplary polynucleotide delivery-enhancing polypeptides were mixed with 20 nM siRNA at a molar ratio of 1 to 5 in OptiMEM medium at room temperature for 5 minutes. At the end of incubation, FBS was added to the mixture (final 3%), and 50 μl of the mixture was added to the cells. The cells were incubated at 37° C. for 3 hours. After incubation, the cells were transferred to V-bottom plate and pelleted at 1500 rpm for 5 min. The cells were resuspended in growth medium (IMDM with glutamine, non-essential amino acid, and pen-strep). After an overnight incubation, the monocytes were stimulated by application of LPS (Sigma) at 1 ng/ml for 3 hours to increase expression of TNF-α expression levels. After induction by LPS, cells were collected as above for mRNA quantification, and supernatant was saved for protein quantification if desired.
For mRNA measurement, branch DNA technology from Genospectra (CA) was used according to manufacturer's specification. To quantitate mRNA level in the cells, both house keeping gene (cypB) and target gene (TNF-α) mRNA were measured, and the reading for TNF-α was normalized with cypB to obtain relative luminescence unit. […]

human monocytes = test: Cytotoxicity with human monocytes
[2] = siRNA 21/21 MD8, siRNA:Peptide Ratio 1:5, human monocytes
[3] = siRNA 21/21 MD8, siRNA:Peptide Ratio 1:10, human monocytes
[4] = siRNA A19S21 MD8, siRNA:Peptide Ratio 1:5, human monocytes
[5] = siRNA A19S21 MD8, siRNA:Peptide Ratio 1:10, human monocytes
[6] = siRNA LC20, siRNA:Peptide Ratio 1:5, human monocytes
[7] = siRNA LC20, siRNA:Peptide Ratio 1:10, human monocytes

Row | Substance | MFI measurement relative to the PN643 positive control, in words [1] | hTNF-α knockdown relative to Qneg complexed with the same polypeptide, in words (hTNF-α mRNA; all three siRNAs, ratios of 1:5 and 1:10, human monocytes) | siRNA Knockdown Activity (hTNF-α mRNA; [2]) | siRNA Knockdown Activity (hTNF-α mRNA; [3]) | siRNA Knockdown Activity (hTNF-α mRNA; [4]) | siRNA Knockdown Activity (hTNF-α mRNA; [5]) | siRNA Knockdown Activity (hTNF-α mRNA; [6]) | siRNA Knockdown Activity (hTNF-α mRNA; [7]) | cytotoxicity effects (human monocytes) | hTNF-α mRNA knockdown relative to the Qneg/PN680 control complex, in words (hTNF-α mRNA; any of the hTNF-α specific siRNAs at a 1:5 ratio)
1 | KKKKKRFSFKKSFKLSGFSFKKNKK-amide (KKKKKRFSFKKSFKLSGFSFKKNKK-NH2) [PN681, MARCKS] | double | little to no knockdown activity | − | − | +/− (the peptide/siRNA complex had a knockdown activity of approximately 90% of the Qneg negative control siRNA (10% reduction in mRNA levels compared to the Qneg negative control)) | +/− (the peptide/siRNA complex had a knockdown activity of approximately 90% of the Qneg negative control siRNA (10% reduction in mRNA levels compared to the Qneg negative control)) | − | − |  | 
2 | RKESYSVYVYKVLKQ-NH2 [PN766] |  |  |  |  |  |  |  |  | No cytotoxicity effects were observed | 
3 | RSVCRQIKICRRRGGCYYKCTNRPY-amide (RSVCRQIKICRRRGGCYYKCTNRPY-NH2; cysteine pairing not given here) [PN680, Androctonin] | comparable |  | + (the peptide/siRNA complex had knockdown activity of 80% of the Qneg negative control siRNA (20% reduction in mRNA levels compared to the Qneg negative control)) | +/− (the peptide/siRNA complex had a knockdown activity of approximately 90% of the Qneg negative control siRNA (10% reduction in mRNA levels compared to the Qneg negative control)) | + (the peptide/siRNA complex had knockdown activity of 80% of the Qneg negative control siRNA (20% reduction in mRNA levels compared to the Qneg negative control)) | +/− (the peptide/siRNA complex had a knockdown activity of approximately 90% of the Qneg negative control siRNA (10% reduction in mRNA levels compared to the Qneg negative control)) | + (the peptide/siRNA complex had knockdown activity of 80% of the Qneg negative control siRNA (20% reduction in mRNA levels compared to the Qneg negative control)) | + (the peptide/siRNA complex had knockdown activity of 80% of the Qneg negative control siRNA (20% reduction in mRNA levels compared to the Qneg negative control)) |  | significant knockdown activity
